The values below come from patent US9045486B2, “Pyrimidone derivatives and their use in the treatment, amelioration or prevention of a viral disease” (priority 2013, dated 2015).

The assay deals with T1, influenza A virus (IAV) PA-Nter fragment (amino acids 1-209) (Influenza A virus, UniProt P31343).
T1 construct: PA-Nter fragment (amino acids 1-209); made in house
The assay can be described thus: FRET endonuclease activity assay. As to conditions: 0.5 μM PA-Nter, 1.6 μM dual-labelled RNA substrate; IC50 from initial reaction velocities (v0). The format is biochemical.

Usually IC50 stands for the concentration that gives 50% inhibition. Higher therefore signals lower potency. On to `O=C1c2c(O)c(=O)nc(CC3(n4ccc5cccnc54)CCCC3)n2CCN1CC1CC1`, for which the IC50 turned out to be 141 nM. `O=C1c2c(O)c(=O)nc(CC3(c4cccc5ccccc45)CCCC3)n2CCN1C1CCOCC1` had an IC50 of 110 nM. In turn, `O=C1c2c(O)c(=O)nc(CC3(c4ccc(Cl)cc4)CCCC3)n2CCN1c1ccccc1` returned a 50% inhibitory concentration (IC50) of 1180 nM. This IC50 lies about 11-fold higher than the previous one. Next, `CC(C)N1CCn2c(Cc3ccc(Cl)cc3-c3cccnc3)nc(=O)c(O)c2C1=O`: 81 nM; `CN1CCn2c(CC3(c4ccccc4)CCCC3)nc(=O)c(O)c2C1=O`: 116 nM.
